Blank lines part the entries; values can stand above or below the molecule they belong to.
Columns and labels:
[1] = molecular target: T1, BKCa channels formed by the exon-less alpha subunit (Homo sapiens, UniProt Q12791); assay: Whole-cell BKCa current in HEK293 cells expressing the alpha subunit alone; format: cell-based; conditions: HEK293
T1 construct: expressed in transfected cells; host or cells: HEK293

BK channel [2] = molecular target: T2, BK channel (Homo sapiens, UniProt Q12791); assay: Inside-out patch clamp (single channel) on EA.hy926 cells; format: cell-based; design: The human umbilical vein derived endothelial cell line, EA.hy926; endogenous in cells; host or cells: EA.hy926 human endothelial cell line; conditions: human EA.hy926 cells, calcium dependent
Procedure: The human umbilical vein derived endothelial cell line, EA.hy926 (Edgell et al., Proc Natl Acad Sci USA. 1983 June; 80(12): 3734-7) at passage >45 was grown in DMEM containing 10% FCS and 1% HAT (5 mM hypoxanthine, 20 μM aminopterin, 0.8 mM thymidine) and cells were maintained in an incubator at 37° C. in 5% CO2 atmosphere. Cells were plated on either 10 mm (for patch-clamp recordings) or 30 mm glass cover slips (for Ca^2+ measurements).
Single-channel recordings were obtained from excised inside-out membrane patches in symmetrical solutions. The pipettes were filled with (in mM) 140 KCl, 10 HEPES, 1 MgCl2, 5 EGTA, 4,931 CaCl2 with pH 7.2 by adding KOH (i.e. 10 μM free Ca^2+, G. Droogmans, Leuven, Belgium; ftp://ftp.cc.kuleuven.ac.be/pub/droodmans/cabuf.zip). Cells were perfused with a standard bath solution containing (in mM) 140 NaCl, 5 KCl, 1.2 MgCl2, 10 HEPES, 10 glucose, 2.4 CaCl2. Following gigaseal formation, bath solution was switched to the following (in mM) 140 KCl, 10 HEPES, 1 MgCl2, 5 EGTA and a desired free Ca^2+ concentration which was adjusted by adding different amounts of CaCl2 calculated by the program CaBuf. pH was adjusted to 7.2 by adding KOH. Membrane currents and potential were recorded using a List EPC7 amplifier (List, Germany) and pClamp (version 8.2, Axon Instruments) software.
Target sequence in this assay (Q12791 1-1178 isoform Q12791-5): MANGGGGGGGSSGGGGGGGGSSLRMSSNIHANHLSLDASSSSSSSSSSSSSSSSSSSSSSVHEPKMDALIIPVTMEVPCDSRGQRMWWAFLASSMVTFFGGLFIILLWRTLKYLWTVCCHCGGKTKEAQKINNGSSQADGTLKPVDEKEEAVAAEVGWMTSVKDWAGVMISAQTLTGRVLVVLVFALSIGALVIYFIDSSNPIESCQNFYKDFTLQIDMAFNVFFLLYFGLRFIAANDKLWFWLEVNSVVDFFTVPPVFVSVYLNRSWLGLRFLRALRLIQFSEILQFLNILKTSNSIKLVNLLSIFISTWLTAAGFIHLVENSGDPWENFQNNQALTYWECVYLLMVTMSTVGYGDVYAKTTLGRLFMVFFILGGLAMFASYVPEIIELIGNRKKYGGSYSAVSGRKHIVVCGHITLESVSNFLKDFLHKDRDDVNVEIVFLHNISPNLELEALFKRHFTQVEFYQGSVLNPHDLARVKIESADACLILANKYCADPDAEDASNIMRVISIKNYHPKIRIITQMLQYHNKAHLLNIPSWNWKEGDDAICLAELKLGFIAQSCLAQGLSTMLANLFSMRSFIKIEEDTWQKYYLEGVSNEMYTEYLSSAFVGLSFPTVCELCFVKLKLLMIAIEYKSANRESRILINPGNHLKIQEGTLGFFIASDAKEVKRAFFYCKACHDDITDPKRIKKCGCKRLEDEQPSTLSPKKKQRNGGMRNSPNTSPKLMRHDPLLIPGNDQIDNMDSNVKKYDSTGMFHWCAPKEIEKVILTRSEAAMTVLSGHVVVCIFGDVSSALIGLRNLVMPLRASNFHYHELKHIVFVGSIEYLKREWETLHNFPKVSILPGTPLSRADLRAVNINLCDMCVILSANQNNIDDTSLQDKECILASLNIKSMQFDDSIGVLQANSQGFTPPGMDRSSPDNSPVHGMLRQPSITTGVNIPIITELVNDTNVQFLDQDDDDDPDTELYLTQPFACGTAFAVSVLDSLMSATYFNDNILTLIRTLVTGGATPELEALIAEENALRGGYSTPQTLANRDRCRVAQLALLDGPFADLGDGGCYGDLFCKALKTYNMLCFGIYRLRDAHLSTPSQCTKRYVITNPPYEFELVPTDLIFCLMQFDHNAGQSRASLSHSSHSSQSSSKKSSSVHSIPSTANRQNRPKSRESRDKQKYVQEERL
Target sequence in this assay (Q86W47 whole entry partner): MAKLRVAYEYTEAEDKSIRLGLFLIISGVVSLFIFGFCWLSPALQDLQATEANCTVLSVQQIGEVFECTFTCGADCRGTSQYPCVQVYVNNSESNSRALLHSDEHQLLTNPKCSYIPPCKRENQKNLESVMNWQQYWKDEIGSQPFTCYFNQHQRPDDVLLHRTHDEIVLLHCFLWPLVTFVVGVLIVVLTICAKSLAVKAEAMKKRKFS

[3] = tested on: salicylate-induced tinnitus in rats; conditions: cited from earlier work
Fmr1 knockout mouse = conditions: cited from earlier work
maxi-K channels = maxi-K channels (Homo sapiens, UniProt Q12791); conditions: cited from earlier work
Sequence of maxi-K channels (Q12791 whole entry): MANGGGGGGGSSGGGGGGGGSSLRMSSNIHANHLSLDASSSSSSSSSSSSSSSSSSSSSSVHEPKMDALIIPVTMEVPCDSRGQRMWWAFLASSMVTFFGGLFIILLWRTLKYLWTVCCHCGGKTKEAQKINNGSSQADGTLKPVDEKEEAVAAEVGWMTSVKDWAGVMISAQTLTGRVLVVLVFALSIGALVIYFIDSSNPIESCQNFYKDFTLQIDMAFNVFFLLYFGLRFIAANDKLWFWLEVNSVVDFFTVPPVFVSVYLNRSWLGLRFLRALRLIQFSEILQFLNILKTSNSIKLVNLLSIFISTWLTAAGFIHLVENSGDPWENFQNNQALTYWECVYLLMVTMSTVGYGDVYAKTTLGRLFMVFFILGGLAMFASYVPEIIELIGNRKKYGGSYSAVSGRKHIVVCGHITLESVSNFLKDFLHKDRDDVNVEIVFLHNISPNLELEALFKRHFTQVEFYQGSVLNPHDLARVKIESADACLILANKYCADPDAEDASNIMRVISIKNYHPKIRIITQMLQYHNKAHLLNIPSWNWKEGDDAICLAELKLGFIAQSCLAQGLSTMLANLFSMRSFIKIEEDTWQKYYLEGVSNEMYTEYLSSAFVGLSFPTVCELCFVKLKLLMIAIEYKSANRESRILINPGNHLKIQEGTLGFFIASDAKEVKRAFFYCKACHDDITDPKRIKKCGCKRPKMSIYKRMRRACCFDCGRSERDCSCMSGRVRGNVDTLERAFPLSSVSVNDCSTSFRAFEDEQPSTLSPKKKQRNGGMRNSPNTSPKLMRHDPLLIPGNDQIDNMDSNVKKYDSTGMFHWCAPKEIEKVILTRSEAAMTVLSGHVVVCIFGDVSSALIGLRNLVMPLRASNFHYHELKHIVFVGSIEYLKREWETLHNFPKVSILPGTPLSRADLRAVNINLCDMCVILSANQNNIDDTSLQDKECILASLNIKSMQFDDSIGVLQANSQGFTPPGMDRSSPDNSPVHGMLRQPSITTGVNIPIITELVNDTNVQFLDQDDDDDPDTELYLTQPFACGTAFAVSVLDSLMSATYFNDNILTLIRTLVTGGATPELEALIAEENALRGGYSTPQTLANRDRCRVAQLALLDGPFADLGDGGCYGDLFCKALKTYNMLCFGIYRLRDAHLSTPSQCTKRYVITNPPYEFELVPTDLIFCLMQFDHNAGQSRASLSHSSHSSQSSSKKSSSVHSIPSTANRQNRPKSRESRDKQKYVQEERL

[4] = tested on: rat models of permanent large-vessel stroke; conditions: cited from earlier work
KNCMA1 = molecular target: T3, KNCMA1 (Sus scrofa, UniProt O18866); assay: Whole-cell current in primary pig aortic endothelial cells; format: cell-based
T3 construct: endogenous in cells; host or cells: primary pig aortic endothelial cells
T3 sequence (O18866 whole entry): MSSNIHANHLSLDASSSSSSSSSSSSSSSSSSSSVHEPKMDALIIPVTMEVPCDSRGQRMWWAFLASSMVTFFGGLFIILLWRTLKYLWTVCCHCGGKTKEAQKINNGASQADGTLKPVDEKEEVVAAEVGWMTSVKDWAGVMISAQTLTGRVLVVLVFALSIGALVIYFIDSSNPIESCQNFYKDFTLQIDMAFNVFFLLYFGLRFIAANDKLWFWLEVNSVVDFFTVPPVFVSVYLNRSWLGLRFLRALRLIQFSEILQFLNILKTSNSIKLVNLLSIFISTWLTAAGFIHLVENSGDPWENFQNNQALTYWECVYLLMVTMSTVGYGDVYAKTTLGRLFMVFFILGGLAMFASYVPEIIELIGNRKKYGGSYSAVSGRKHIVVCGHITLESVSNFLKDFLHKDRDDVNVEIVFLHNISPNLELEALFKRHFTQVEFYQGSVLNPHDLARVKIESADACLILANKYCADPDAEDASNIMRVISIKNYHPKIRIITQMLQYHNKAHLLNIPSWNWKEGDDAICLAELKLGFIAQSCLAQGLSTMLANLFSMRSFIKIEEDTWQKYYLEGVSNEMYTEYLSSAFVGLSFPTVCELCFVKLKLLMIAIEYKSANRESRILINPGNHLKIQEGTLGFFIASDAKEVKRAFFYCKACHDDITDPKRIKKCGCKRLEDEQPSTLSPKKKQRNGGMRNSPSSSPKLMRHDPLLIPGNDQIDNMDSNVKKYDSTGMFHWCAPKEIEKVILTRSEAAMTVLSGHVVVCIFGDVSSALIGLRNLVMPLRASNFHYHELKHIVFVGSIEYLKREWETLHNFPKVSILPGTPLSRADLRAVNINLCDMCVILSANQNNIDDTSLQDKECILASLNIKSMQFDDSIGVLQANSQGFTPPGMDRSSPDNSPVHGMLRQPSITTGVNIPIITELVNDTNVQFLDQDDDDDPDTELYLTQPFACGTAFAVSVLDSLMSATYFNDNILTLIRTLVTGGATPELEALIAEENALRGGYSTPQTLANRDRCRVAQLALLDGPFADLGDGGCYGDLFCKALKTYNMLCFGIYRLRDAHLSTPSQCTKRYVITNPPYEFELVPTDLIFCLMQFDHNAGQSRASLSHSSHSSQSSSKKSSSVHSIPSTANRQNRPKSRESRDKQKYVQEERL
Source text: Pig aortic endothelial cells only express KNCMAI and not KNCMB1-4 (Papassotiriou et al). Thus, the absence of stimulation indicates a lack of effect on KNCMA1.

[5] = tested on: C57BL/6.Fmr1 knockout mice; assay: Contextual fear conditioning in Fmr1 knockout mice; format: in vivo, mouse; conditions: wildtype mice; 2 mg/kg
Procedure: Animals: C57BL/6.J. Fmr1-K02 mice, which have a deletion of the promoter and exonl of the Fmr1 gene (Mientjes et al., 2006) and C57BL/6J wild type (WT) were originated from the Jackson laboratory (Ann Harbor, USA). Mice were housed in groups (4-6 per cage) and all animals were provided with ad libitum food and water unless otherwise stated. Mice were maintained on a 12 h light/12 h dark cycle (lights off 19:00 to 7:00) in a temperature-controlled environment (21±1° C.). Testing was conducted in the light phase. Mice were housed in commercial cages and experiments were performed in line with the United Kingdom Animals (Scientific procedures) Act 1986. All experiments were conducted with experimentors blind to genotype and drug treatment. Each experimental group contained 10 animals.
Drug Treatment: VSN16R was dissolved in saline for injection intravenously via a tail vein using 2 mg/kg a 30 g needle in a volume of 0.1 ml. Animals were inspected for differences in coat appearance, to detect whether any piloerection was present. The eye condition (runny eyes or porphyria, ptosis), gait appearance, tremor, tail tone, reactivity to handling was assessed to detect adverse behavioural effect.
Contextual fear conditioning: Animals are trained to expect an electroshock treatment within a defined environment, such that on subsequent presentation of the environment, freezing behaviours are induced. […]

mesenteric arteries = conditions: cited from earlier work
[6] = tested on: OVA- and HDM-sensitized mice; conditions: cited from earlier work
[7] = tested on: murine ex vivo lung slices; conditions: cited from earlier work
isolated hearts = conditions: after cold cardioplegic arrest; cited from earlier work
BK channel [8] = molecular target: T2, BK channel; design: host or cells: human airway smooth muscle (ASM) cells; conditions: human ASM cells; cited from earlier work
Target sequence in this assay (Q12791 whole entry): as the sequence (Q12791 whole entry) above

T1 sequence (Q12791 1-1178 isoform Q12791-5): as the sequence (Q12791 1-1178 isoform Q12791-5) above

Compound: CC[N+](CC)(CC)CC [TEA, reference compound]
suppression of BKCa current ([1]; 5 mM): consistently suppressed the BKCa current

Compound: CC(NC(=O)c1cccc(/C=C\CCCC(=O)N(C)C)c1)C(=O)O [VSN44R, (Z)-(3-(6-(dimethylamino)-6-oxohex-1-en-1-yl)benzoyI)-D-alanine]
activation of the response of the channel (BK channel [2]): activation of the response of the channel

Compound: CC(C)(O)[C@H]1O[C@H]2CC[C@@]3(C)[C@@](O)(CC[C@H]4Cc5c([nH]c6ccccc56)[C@@]43C)C2=CC1=O [paxilline, (2R,4bS,6aS,12bS,12cR,14aS)-5,6,6a,7,12,12b,12c,13,14,14a-Decahydro-4b-hydroxy-2-(1-hydroxy-1-methylethyl)-12b,12c-dimethyl-2H-pyrano[2″,3″:5′,6′]benz[1′,2′:6,7]indeno[1,2-b]indol-3(4bH)-one, reference compound]
suppression of BKCa current ([1]; 10 μM): suppressed
suppression of BKCa current ([1]; 10 μM, listed as Paxilline): consistently suppressed the BKCa current

Compound: COc1ccc(Cl)cc1[C@]1(F)C(=O)Nc2cc(C(F)(F)F)ccc21 [BMS-204352]
behavioural effects of tinnitus ([3]; 10 mg/kg): abolished
FXS-associated phenotypes (Fmr1 knockout mouse): could inhibit the FXS-associated phenotypes
opening of maxi-K channels (maxi-K channels): potent, effective and uniquely Ca^2+-sensitive opener
cortical neuroprotection ([4]; administered two hours after onset of occlusion): provided significant levels of cortical neuroprotection
blood pressure or cerebral blood flow ([4]; rat, in vivo): had no effect on blood pressure or cerebral blood flow

Compound: Clc1ccccc1C(c1ccccc1)(c1ccccc1)n1cccn1 [TRAM-34, reference compound]
effect on residual current (KNCMA1; IK channel blocker after VSN16R): a minor effect on this residual current

Compound: CC(CO)NC(=O)c1cccc(/C=C\CCCC(=O)N(C)C)c1 (centres unmarked) [VSN16]
effect on current (KNCMA1; no BK beta chains): does not stimulate pig aortic endothelial cells
fear conditioning and digging behaviour in wildtype mice [5]: exhibited no-inhibitory effect
relaxation of mesenteric arteries (mesenteric arteries): relaxed mesenteric arteries in an endothelium-dependent manner
vasorelaxation in the presence of rimonabant, AM 251 or O-1918 (mesenteric arteries; high concentrations of the antagonists): antagonized

Compound: CC(=O)c1c(O)c(C)c(O)c(Cc2c(O)c3c(c(C(=O)/C=C/c4ccccc4)c2O)OC(C)(C)C=C3)c1O [rottlerin]
reduction in Th2 cytokines ([6]; bronchoalveolar lavage fluid): 20-35%
reduction in inflammatory cells ([6]; bronchoalveolar lavage fluid): 35-40%
reduction of AHR ([6]; intravenous, within 5 minutes, OVA-asthma mice, P<0.01): 45%
methacholine-induced airway hyperreactivity (AHR) ([6]; systemic administration): reduces methacholine-induced airway hyperreactivity
frequency of acetylcholine-induced Ca2+ oscillations [7]: reduces the frequency of acetylcholine-induced Ca^2+ oscillations
cardiac contractile performance and coronary perfusion (isolated hearts): increases cardiac contractile performance and coronary perfusion
BK channel activity (BK channel [8]): increases BK channel activity

enhancement of BKCa current ([1]; 10 μM, steps −40 mV to +70 mV, 200 nM calcium): approximately doubled
Compound: Nc1ncc(Cc2ccc(Br)cc2)s1 [NS19504, 5-[(4-bromophenyl)methyl]-2-thiazolannine, reference compound]

Compound: COc1ccc(Cl)cc1[C@@]1(F)C(=O)Nc2cc(C(F)(F)F)ccc21 [R-Maxipost]
effect on tinnitus ([3]; dose not given): maintained the positive effect on tinnitus

Source: US20180116983A1, “COMPOUNDS FOR TREATING DISORDERS ASSOCIATED WITH BK CHANNEL MODULATION” (Canbex Therapeutics Limited, priority 2015, published 2018)
